Peptide text beside a SMILES is read from it.
Tested on: Botrytis cinerea (B05.10)
Assay: Resazurin antifungal assay of 180 alpha-factor peptide variants towards Botrytis (Example 2)
Type: cell-based
Details: % inhibition of fungal growth, Botrytis conidia, resazurin; for Inhibition at 50 μM: peptide 50 μM; for Inhibition at 100 μM: peptide 100 μM
Method in brief: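 B. cinerea B05.10 conidia (5000/well) were exposed to peptides at 100, 50, 20, 15 and 10 μM final for 24 h at 20° C. Resazurin was then added and fluorescence read at 570/620 nm. Percent growth inhibition was calculated against conidia-only wells, with four technical replicates.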

Structure (SMILES)	Inhibition at 50 μM	Inhibition at 100 μM
CSCC[C@H](NC(=O)[C@@H]1CCCN1C(=O)[C@H](CO)NC(=O)CNC(=O)[C@@H]1CCCN1C(=O)[C@H](CCCCN)NC(=O)[C@H](Cc1ccccc1)NC(=O)[C@H](C)NC(=O)[C@@H](NC(=O)[C@H](Cc1c[nH]c2ccccc12)NC(=O)[C@H](Cc1c[nH]cn1)NC(=O)[C@@H]1CCCN1)C(C)C)C(=O)N[C@@H](Cc1ccc(O)cc1)C(=O)O [compound 161] (H-PHWVAFKPGSPMY-OH; N-terminus and C-terminus assumed)	<90%	90.52%
CSCC[C@H](NC(=O)[C@@H]1CCCN1C(=O)[C@H](CCC(N)=O)NC(=O)CNC(=O)[C@@H]1CCCN1C(=O)[C@H](CCCCN)NC(=O)[C@H](CC(C)C)NC(=O)[C@H](CCC(=O)O)NC(=O)[C@H](CC(C)C)NC(=O)[C@H](Cc1ccc(O)cc1)NC(=O)[C@H](Cc1c[nH]cn1)NC(=O)[C@@H](N)CCCCN)C(=O)N[C@@H](Cc1ccc(O)cc1)C(=O)O [compound 162] (H-KHYLELKPGQPMY-OH; N-terminus and C-terminus assumed)	<90%	<90%
CSCC[C@H](NC(=O)[C@H](Cc1c[nH]cn1)NC(=O)[C@@H](N)Cc1c[nH]c2ccccc12)C(=O)N[C@H](C(=O)N[C@@H](CCC(N)=O)C(=O)N[C@@H](CC(C)C)C(=O)N[C@@H](CCCCN)C(=O)N1CCC[C@H]1C(=O)NCC(=O)N[C@@H](CCC(=O)O)C(=O)N1CCC[C@H]1C(=O)N[C@@H](CCSC)C(=O)N[C@@H](Cc1ccc(O)cc1)C(=O)O)C(C)C [compound 163] (H-WHMVQLKPGEPMY-OH; N-terminus and C-terminus assumed)	<90%	<90%
CSCC[C@H](NC(=O)[C@@H]1CCCN1C(=O)[C@H](CCC(N)=O)NC(=O)CNC(=O)[C@@H]1CCCN1C(=O)[C@H](CCCCN)NC(=O)[C@H](CC(C)C)NC(=O)[C@H](CO)NC(=O)[C@H](CC(C)C)NC(=O)[C@@H](NC(=O)CNC(=O)[C@@H](N)CCCCN)[C@@H](C)O)C(=O)N[C@@H](Cc1ccc(O)cc1)C(=O)O [compound 164] (H-KGTLSLKPGQPMY-OH; N-terminus and C-terminus assumed)	<90%	<90%
CSCC[C@H](NC(=O)[C@@H]1CCCN1C(=O)[C@H](CCC(N)=O)NC(=O)CNC(=O)[C@@H]1CCCN1C(=O)[C@H](CCCCN)NC(=O)[C@H](Cc1ccccc1)NC(=O)[C@H](CCC(=O)O)NC(=O)[C@H](CC(C)C)NC(=O)[C@H](CO)NC(=O)[C@H](Cc1c[nH]cn1)NC(=O)[C@@H](N)CCCCN)C(=O)N[C@@H](Cc1ccc(O)cc1)C(=O)O [compound 165] (H-KHSLEFKPGQPMY-OH; N-terminus and C-terminus assumed)	<90%	<90%
CSCC[C@H](NC(=O)[C@@H]1CCCN1C(=O)[C@H](CCC(N)=O)NC(=O)CNC(=O)[C@H](CCCNC(=N)N)NC(=O)[C@H](CCCCN)NC(=O)[C@H](Cc1ccccc1)NC(=O)[C@H](CCC(N)=O)NC(=O)[C@@H](NC(=O)[C@H](Cc1ccccc1)NC(=O)[C@H](CCC(=O)O)NC(=O)[C@@H](N)Cc1c[nH]c2ccccc12)C(C)C)C(=O)N[C@@H](Cc1ccc(O)cc1)C(=O)O [compound 166] (H-WEFVQFKRGQPMY-OH; N-terminus and C-terminus assumed)	<90%	<90%
CSCC[C@H](NC(=O)[C@@H]1CCCN1C(=O)[C@H](CCC(N)=O)NC(=O)CNC(=O)[C@H](CCCNC(=N)N)NC(=O)[C@H](CCC(N)=O)NC(=O)[C@H](Cc1ccccc1)NC(=O)[C@H](CCC(=O)O)NC(=O)[C@H](CC(C)C)NC(=O)[C@H](Cc1c[nH]c2ccccc12)NC(=O)[C@H](Cc1c[nH]cn1)NC(=O)[C@@H](N)Cc1c[nH]c2ccccc12)C(=O)N[C@@H](Cc1ccc(O)cc1)C(=O)O [compound 167] (H-WHWLEFQRGQPMY-OH; N-terminus and C-terminus assumed)	<90%	<90%
CSCC[C@H](NC(=O)[C@@H]1CCCN1C(=O)[C@H](CCC(N)=O)NC(=O)CNC(=O)[C@@H]1CCCN1C(=O)[C@H](Cc1c[nH]cn1)NC(=O)[C@H](CC(C)C)NC(=O)[C@H](CCC(N)=O)NC(=O)[C@@H](NC(=O)[C@H](CC(C)C)NC(=O)[C@H](Cc1c[nH]cn1)NC(=O)[C@@H](N)CCCCN)C(C)C)C(=O)N[C@@H](Cc1ccc(O)cc1)C(=O)O [compound 168] (H-KHLVQLHPGQPMY-OH; N-terminus and C-terminus assumed)	<90%	<90%
CC[C@H](C)[C@H](NC(=O)[C@@H](NC(=O)[C@H](Cc1c[nH]cn1)NC(=O)[C@@H]1CCCN1)[C@@H](C)O)C(=O)N[C@@H](CCC(N)=O)C(=O)N[C@@H](CC(C)C)C(=O)N[C@@H](Cc1c[nH]c2ccccc12)C(=O)N[C@@H](CCCCN)C(=O)NCC(=O)N[C@@H](CCC(N)=O)C(=O)N1CCC[C@H]1C(=O)N[C@@H](CCSC)C(=O)N[C@@H](Cc1ccc(O)cc1)C(=O)O [compound 169] (H-PHTIQLWKGQPMY-OH; N-terminus and C-terminus assumed)	<90%	<90%
CSCC[C@H](NC(=O)[C@H](Cc1c[nH]cn1)NC(=O)[C@@H](N)Cc1c[nH]c2ccccc12)C(=O)N[C@@H](CC(C)C)C(=O)N[C@H](C(=O)N[C@@H](Cc1ccccc1)C(=O)N[C@@H](CCCCN)C(=O)N1CCC[C@H]1C(=O)NCC(=O)N[C@@H](CCC(N)=O)C(=O)N1CCC[C@H]1C(=O)N[C@@H](CCSC)C(=O)N[C@@H](Cc1ccc(O)cc1)C(=O)O)[C@@H](C)O [compound 170] (H-WHMLTFKPGQPMY-OH; N-terminus and C-terminus assumed)	<90%	<90%
CSCC[C@H](NC(=O)[C@@H]1CCCN1C(=O)[C@H](CCC(=O)O)NC(=O)CNC(=O)[C@@H]1CCCN1C(=O)[C@H](CCCCN)NC(=O)[C@H](Cc1ccccc1)NC(=O)[C@H](CCC(N)=O)NC(=O)CNC(=O)[C@H](CC(C)C)NC(=O)[C@H](Cc1c[nH]cn1)NC(=O)[C@@H](N)Cc1c[nH]c2ccccc12)C(=O)N[C@@H](Cc1ccc(O)cc1)C(=O)O [compound 171] (H-WHLGQFKPGEPMY-OH; N-terminus and C-terminus assumed)	<90%	<90%
CSCC[C@H](NC(=O)[C@@H]1CCCN1C(=O)[C@H](CCSC)NC(=O)CNC(=O)[C@H](CO)NC(=O)[C@H](CCCCN)NC(=O)[C@H](CC(C)C)NC(=O)[C@H](C)NC(=O)CNC(=O)[C@H](Cc1c[nH]c2ccccc12)NC(=O)[C@H](CO)NC(=O)[C@@H](N)Cc1c[nH]c2ccccc12)C(=O)N[C@@H](Cc1ccc(O)cc1)C(=O)O [compound 172] (H-WSWGALKSGMPMY-OH; N-terminus and C-terminus assumed)	<90%	<90%
CSCC[C@H](NC(=O)[C@@H]1CCCN1C(=O)[C@H](CCC(N)=O)NC(=O)CNC(=O)[C@H](CC(N)=O)NC(=O)[C@H](CCCCN)NC(=O)[C@H](CC(C)C)NC(=O)[C@H](CCC(N)=O)NC(=O)[C@@H](NC(=O)[C@H](Cc1c[nH]c2ccccc12)NC(=O)[C@H](Cc1c[nH]cn1)NC(=O)[C@@H]1CCCN1)C(C)C)C(=O)N[C@@H](Cc1ccc(O)cc1)C(=O)O [compound 173] (H-PHWVQLKNGQPMY-OH; N-terminus and C-terminus assumed)	<90%	<90%
CSCC[C@H](NC(=O)[C@@H]1CCCN1C(=O)[C@H](CCC(N)=O)NC(=O)CNC(=O)[C@@H]1CCCN1C(=O)[C@H](Cc1c[nH]cn1)NC(=O)[C@H](CC(C)C)NC(=O)[C@H](CCC(N)=O)NC(=O)[C@@H](NC(=O)[C@H](CO)NC(=O)[C@H](Cc1c[nH]cn1)NC(=O)[C@@H](N)Cc1c[nH]c2ccccc12)C(C)C)C(=O)N[C@@H](Cc1ccc(O)cc1)C(=O)O [compound 174] (H-WHSVQLHPGQPMY-OH; N-terminus and C-terminus assumed)	<90%	<90%
CC[C@H](C)[C@H](NC(=O)[C@H](Cc1c[nH]c2ccccc12)NC(=O)[C@H](CCCCN)NC(=O)[C@@H](N)CCCCN)C(=O)N[C@@H](CCC(N)=O)C(=O)N[C@@H](CC(C)C)C(=O)N[C@@H](CCCCN)C(=O)N1CCC[C@H]1C(=O)NCC(=O)N[C@@H](CCC(=O)O)C(=O)N1CCC[C@H]1C(=O)N[C@@H](CCSC)C(=O)N[C@@H](Cc1ccc(O)cc1)C(=O)O [compound 175] (H-KKWIQLKPGEPMY-OH; N-terminus and C-terminus assumed)	<90%	<90%
CSCC[C@H](NC(=O)[C@@H]1CCCN1C(=O)[C@H](CO)NC(=O)CNC(=O)[C@H](CCCNC(=N)N)NC(=O)[C@H](CCCCN)NC(=O)[C@H](CC(C)C)NC(=O)[C@H](CC(N)=O)NC(=O)[C@@H](NC(=O)[C@H](CC(=O)O)NC(=O)[C@H](Cc1c[nH]cn1)NC(=O)[C@@H](N)Cc1c[nH]c2ccccc12)C(C)C)C(=O)N[C@@H](Cc1ccc(O)cc1)C(=O)O [compound 176] (H-WHDVNLKRGSPMY-OH; N-terminus and C-terminus assumed)	<90%	<90%
CSCC[C@H](NC(=O)[C@@H]1CCCN1C(=O)[C@H](CCC(N)=O)NC(=O)CNC(=O)[C@@H]1CCCN1C(=O)[C@H](CCCCN)NC(=O)[C@H](Cc1ccccc1)NC(=O)[C@H](CCC(=O)O)NC(=O)[C@H](CC(C)C)NC(=O)[C@@H](NC(=O)[C@H](Cc1c[nH]cn1)NC(=O)[C@@H](N)CCCCN)[C@@H](C)O)C(=O)N[C@@H](Cc1ccc(O)cc1)C(=O)O [compound 177] (H-KHTLEFKPGQPMY-OH; N-terminus and C-terminus assumed)	<90%	<90%

Reference: patent US20250382332A1, “NOVEL ALPHA-FACTOR BASED PEPTIDES WITH ANTIFUNGAL ACTIVITY” (INVAIO SCIENCES, INC., priority 2024, published 2025)
